Data from patent US9376433B2, “(AZA-)isoquinolinone derivatives” (MERCK PATENT GMBH, priority 2012, dated 2016).

Key:
Tankyrase-1 = molecular target: T1, Tankyrase-1 (Homo sapiens, UniProt O95271); assay: Tankyrase 1 autoparsylation assay (HTRF enzyme assay); type: biochemical; conditions: GST-tagged Tankyrase-1 (1023-1327 aa)
T1 construct: GST-tagged Tankyrase-1 (1023-1327 aa)
Method: Biochemical activity testing of Tankyrase 1 and 2: Autoparsylation assay
The autoparsylation assay is run in two steps: the enzymatic reaction in which GST-tagged Tankyrase-1, resp Tankyrase-2 transferred biotinylated ADP-ribose to itself from biotinylated NAD as co-substrate and the detection reaction where a time resolved FRET between cryptate labelled anti-GST bound to the GST tag of the enzyme and Xlent® labelled-streptavidin bound the biotin-parsylation residue is analysed. The autoparsylation activity was detectable directly via the increase in HTRF signal.
The autoparsylation assay is performed as 384-well HTRF® (Cisbio, Codolet, France) assay format in Greiner low volume nb 384-well microtiter plates and is used for high throughput screen. 250 nM GST-tagged Tankyrase-1 (1023-1327 aa), respectively about 250 nM GST-tagged Tankyrase-2 (873-1166 aa) and 5 μM bio-NAD (Biolog, Life science Inst., Bremen, Germany) as co-substrate are incubated in a total volume of 5 μl (50 mM HEPES, 4 mM Mg-chloride, 0.05% Pluronic F-68, 1.4 mM DTT, 0.5% DMSO, pH 7.7) in the absence or presence of the test compound (10 dilution concentrations) for 90 min at 30° C. The reaction is stopped by the addition of 1 μl 50 mM EDTA solution. 2 μl of the detection solution (1.6 μM SA-Xlent® (Cisbio, Codolet, France), 7.4 nM Anti-GST-K® (Eu-labelled anti-GST, Cisbio, Codolet, France) in 50 mM HEPES, 800 mM KF, 0.1% BSA, 20 mM EDTA, 0.1% CHAPS, pH 7.0) are added. After 1 h incubation at room temperature the HTRF is measured with an Envision multimode reader (Perkin Elmer LAS Germany GmbH) at excitation wavelength 340 nm (laser mode) and emission wavelengths 615 nm and 665 nm. The ratio of the emission signals is determined. The full value used is the inhibitor-free reaction. The pharmacological zero value used is XAV-939 (Tocris) in a final concentration of 5 μM. The inhibitory values (IC50) are determined using either the program Symyx Assay Explorer® or Condosseo® from GeneData.

TNKS1 = molecular target: T2, TNKS1 (Homo sapiens, UniProt O95271); assay: TNKS1 activity ELISA (autoparsylation assay); type: biochemical; conditions: GST-tagged Tnks-1 (1023-1327 aa), luminescence
T2 construct: GST-tagged Tnks-1 (1023-1327 aa, prepared in-house); made in house
Method: Description of the TNKS1 and TNKS2 ELISA Assay
Biochemical activity testing of TNKS 1 and 2: activity ELISA (Autoparsylation assay)
For analysis of autoparsylation activity of TNKS 1 and 2 an activity ELISA iss performed: In the first step GST tagged TNKS is captured on a Glutathione coated plate. Then the activity assay with biotinylated NAD is performed in the absence/presence of the compounds. During the enzymatic reaction GST tagged TNKS transfers biotinylated ADP-ribose to itself from biotinylated NAD as co-substrate. For the detection streptavidin-HRP conjugate is added that binds to the biotinylated TNKS and is thereby captured to the plates. The amount of biotinylated resp. autoparsylated TNKS is detected with a luminescence substrate for HRP. The level of the luminescence signal correlats directly with the amount of autoparsylated TNKS and therefore with activity of TNKS.
The acitivity ELISA is performed in 384 well Glutathione coated microtiter plates (Express capture Glutathione coated plate, Biocat, Heidelberg, Germany). The plates are pre-equilibrated with PBS. Then the plates are incubated with 50 μl 20 ng/well GST-tagged Tnks-1 (1023-1327 aa, prepared in-house), respectively GST-tagged Tnks-2 (873-1166 aa, prepared in-house) in assay buffer (50 mM HEPES, 4 mM Mg-chloride, 0.05% Pluronic F-68, 2 mM DTT, pH 7.7) overnight at 4° C. The plates are washed 3 times with PBS-Tween-20. The wells are blocked by incubation at room temperature for 20 minutes with 50 μl blocking buffer (PBS, 0.05% Tween-20, 0.5% BSA). Afterwards the plates are washed 3 times with PBS-Tween-20. The enzymatic reaction is performed in 50 μl reaction solution (50 mM HEPES, 4 mM Mg-chloride, 0.05% Pluronic F-68, 1.4 mM DTT, 0.5% DMSO, pH 7.7) with10 μM bio-NAD (Biolog, Life science Inst., Bremen, Germany) as co-substrate in the absence or presence of the test compound (10 dilution concentrations) for 1 hour at 30° C. The reaction is stopped by 3 times washing with PBS-Tween-20. For the detection 50 μl of 20 ng/μl Streptavidin, HRP conjugate (MoBiTec, Göttingen, Germany) in PBS/0.05% Tween-20/0.01% BSA are added and the plates are incubated for 30 minutes at room temperature. After three times washing with PBS-Tween-20 50 μl of SuperSignal ELISA Femto Maximum sensitivity substrate solution (ThermoFisherScientific (Pierce), Bonn, Germany) are added. Following a 1 minute incubation at room temperature luminescence signals are measured with an Envision multimode reader (Perkin Elmer LAS Germany GmbH) at 700 nm. The full value used is the inhibitor-free reaction. The pharmacological zero value used is XAV-939 (Tocris) in a final concentration of 5 μM. The inhibitory values (IC50) are determined using either the program Symyx Assay Explorer® or Condosseo® from GeneData.

tankyrase 1/2 = assay: Cellular inhibition of tankyrase: increase of Axin2 level in DLD1 cells (Luminex); type: cell-based; conditions: DLD1 colon carcinoma cells, 24 hours, read-out: EC50 tankyrase 1/2 (cell assay)
Method: Measurement of Cellular Inhibition of Tankyrase
Since Tankyrases have been described to modulate cellular level of Axin2 (Huang et al., 2009; Nature) the increase of Axin2 level is used as read-out for determination of cellular inhibition of Tankyrases in a Luminex based assay.
Cells of the colon carcinoma cell line DLD1 are plated in 96 well plates with 1.5×10^4 cells per well. Next day, cells are treated with a serial dilution of test compound in seven steps as triplicates with a final DMSO concentration of 0.3%. After 24 hours, cells are lysed in lysis buffer (20 mM Tris/HCl pH 8.0, 150 mM NaCl, 1% NP40, 10% Glycerol) and lysates are cleared by centrifugation through a 96 well filter plate (0.65 μm). Axin2 protein is isolated from cell lysates by incubation with a monoclonal anti-Axin2 antibody (R&D Systems #MAB6078) that is bound to fluorescent carboxybeads. Then, bound Axin2 is specifically detected with a polyclonal anti-Axin2 antibody (Cell Signaling #2151) and an appropriate PE-fluorescent secondary antibody. The amount of isolated Axin2 protein is determined in a Luminex^200 machine (Luminex Corporation) according to the manufacturer's instruction by counting 100 events per well. Inhibition of Tankyrase by test compounds results in higher levels of Axin2 which directly correlates with an increase of detectable fluorescence. As controls cells are treated with solvent alone (neutral control) and with a Tankyrase reference inhibitor IWR-2 (3E-06 M) which refers as control for maximum increase of Axin2. For analysis, the obtained data are normalized against the untreated solvent control and fitted for determination of the EC50 values using the Assay Explorer software (Accelrys).

T1 sequence (O95271 1023-1327): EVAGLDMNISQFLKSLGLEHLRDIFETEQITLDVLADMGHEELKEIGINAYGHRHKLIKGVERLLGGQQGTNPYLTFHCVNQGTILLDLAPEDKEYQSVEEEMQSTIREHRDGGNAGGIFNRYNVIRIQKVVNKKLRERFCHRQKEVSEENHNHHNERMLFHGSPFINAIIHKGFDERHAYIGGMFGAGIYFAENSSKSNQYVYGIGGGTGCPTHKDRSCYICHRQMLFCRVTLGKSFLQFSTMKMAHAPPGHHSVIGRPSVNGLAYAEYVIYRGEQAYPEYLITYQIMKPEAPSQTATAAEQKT
T2 sequence (O95271 1023-1327): as above

| SMILES | IC50 (Tankyrase-1) | IC50 (TNKS1) | EC50 (tankyrase 1/2) |
| --- | --- | --- | --- |
| Cc1ccc(-c2cc3cc(F)ccc3c(=O)[nH]2)cc1 [Compound A10, 6-fluoro-3-p-tolyl-2H-isoquinolin-1-one] | 300 to 3000 nM | < 300 nM | 3000 to 50000 nM |
| CC(C)(O)c1ccc(-c2cc3cnccc3c(=O)[nH]2)cc1 [Compound A23, 3-[4-(1-hydroxy-1-methyl-ethyl)phenyl]-2H-2,6-naphthyridin-1-one] | < 300 nM | < 300 nM | 300 to 3000 nM |
| Cc1ccc(-c2cc3cccc(F)c3c(=O)[nH]2)cc1 [Compound A11, 8-fluoro-3-p-tolyl-2H-isoquinolin-1-one] | < 300 nM | < 300 nM | 300 to 3000 nM |
| CC(C)(O)c1ccc(-c2cc3ccncc3c(=O)[nH]2)cc1 [Compound A24, 3-[4-(1-hydroxy-1-methyl-ethyl)phenyl]-2H-2,7-naphthyridin-1-one] | < 300 nM | < 300 nM | 300 to 3000 nM |
| CC(C)(O)c1ccc(-c2cc3c(F)cc(F)cc3c(=O)[nH]2)cc1 [Compound A33, 5,7-difluoro-3-[4-(1-hydroxy-1-methyl-ethyl)-phenyl]-2H-isoquinolin-1-one] | < 300 nM | < 300 nM | < 300 nM |
| CC(C)(O)c1ccc(-c2cc3cc(F)ccc3c(=O)[nH]2)cc1 [Compound A5, 6-fluoro-3-[4-(1-hydroxy-1-methyl-ethyl)-phenyl]-2H-isoquinolin-1-one] | < 300 nM | < 300 nM | 300 to 3000 nM |
| CC(C)(N)c1ccc(-c2cc3ccc(F)cc3c(=O)[nH]2)cc1 [Compound A20, 3-[4-(1-amino-1-methyl-ethyl)phenyl]-7-fluoro-2H-isoquinolin-1-one] | < 300 nM | < 300 nM | 300 to 3000 nM |
| CC(C)(O)c1ccc(-c2cc3ccccc3c(=O)[nH]2)cc1 [Compound A3, 3-[4-(1-hydroxy-1-methyl-ethyl)-phenyl]-2H-isoquinolin-1-one] | < 300 nM | < 300 nM | < 300 nM |
| Cn1cc(-c2ccc(-c3cc4ccc(F)cc4c(=O)[nH]3)cc2)cn1 [Compound A18, 7-fluoro-3-[4-(1-methyl-1H-pyrazol-4-yl)-phenyl]-2H-isoquinolin-1-one] | < 300 nM | < 300 nM | < 300 nM |
| CC(C)(O)c1ccc(-c2cc3ccc(F)cc3c(=O)[nH]2)cc1 [Compound A6, 7-fluoro-3-[4-(1-hydroxy-1-methyl-ethyl)-phenyl]-2H-isoquinolin-1-one] | < 300 nM | < 300 nM | < 300 nM |
| COC(C)(C)c1ccc(-c2cc3ccccc3c(=O)[nH]2)cc1 [Compound A15, 3-[4-(1-methoxy-1-methyl-ethyl)-phenyl]-2H-isoquinolin-1-one] | < 300 nM | < 300 nM | < 300 nM |
| CC(C)(O)c1ccc(-c2cc3c(F)cccc3c(=O)[nH]2)cc1 [Compound A28, 5-fluoro-3-[4-(1-hydroxy-1-methyl-ethyl)phenyl]-2H-isoquinolin-1-one] | < 300 nM | < 300 nM | < 300 nM |
| Cc1ccc(-c2cc3ccc(F)cc3c(=O)[nH]2)cc1 [Compound A9, 7-fluoro-3-p-tolyl-2H-isoquinolin-1-one] | < 300 nM | < 300 nM | 300 to 3000 nM |
| Cn1cc(-c2ccc(-c3cc4ccncc4c(=O)[nH]3)cc2)cn1 [Compound A14, 3-[4-(1-Methyl-1H-pyrazol-4-yl)-phenyl]-2H-[2,7]naphthyridin-1-one] | < 300 nM | < 300 nM | 300 to 3000 nM |
| C=C(C)c1ccc(-c2cc3ccc(F)cc3c(=O)[nH]2)cc1 [Compound A17, 7-fluoro-3-(4-isopropenyl-phenyl)-2H-isoquinolin-1-one] | < 300 nM | < 300 nM | < 300 nM |
| CC(C)(O)c1ccc(-c2cc3cccc(F)c3c(=O)[nH]2)cc1 [Compound A27, 8-fluoro-3-[4-(1-hydroxy-1-methyl-ethyl)phenyl]-2H-isoquinolin-1-one] | < 300 nM | < 300 nM | < 300 nM |
| Cc1ccc(-c2cc3c(F)cccc3c(=O)[nH]2)cc1 [Compound A12, 5-fluoro-3-p-tolyl-2H-isoquinolin-1-one] | < 300 nM | < 300 nM | 300 to 3000 nM |
| Cc1ccc(-c2cc3c(C)cccc3c(=O)[nH]2)cc1 [Compound A29, 5-methyl-3-(p-tolyl)-2H-isoquinolin-1-one] | < 300 nM | < 300 nM | 300 to 3000 nM |
| CC(C)(OCCO)c1ccc(-c2cc3ccc(F)cc3c(=O)[nH]2)cc1 [Compound A16, 7-fluoro-3-{4-[1-(2-hydroxy-ethoxy)-1-methyl-ethyl]-phenyl}-2H-isoquinolin-1-one] | < 300 nM | < 300 nM | < 300 nM |
